From patent publication US7420001B2 (Wyeth, priority 2003, dated 2008)
Read-outs that look alike come from different tables or passages of the source.

Legend:
[1] = target: T1, MMP-13 (Homo sapiens, UniProt P45452); assay: In-vitro fluorescence assay of MMP-13 activity; assay type: biochemical
T1 construct: made in house

[2] = target: T2, MMP-2 (Homo sapiens, UniProt P08253); assay: In-vitro fluorescence assay of MMP-2 activity; assay type: biochemical; conditions: recombinant human MMP-2; read-out: MMP-2 IC50
T2 construct: purchased Oncogene Research Products (Calbiochem) PF023
T2 sequence (P08253 110-660): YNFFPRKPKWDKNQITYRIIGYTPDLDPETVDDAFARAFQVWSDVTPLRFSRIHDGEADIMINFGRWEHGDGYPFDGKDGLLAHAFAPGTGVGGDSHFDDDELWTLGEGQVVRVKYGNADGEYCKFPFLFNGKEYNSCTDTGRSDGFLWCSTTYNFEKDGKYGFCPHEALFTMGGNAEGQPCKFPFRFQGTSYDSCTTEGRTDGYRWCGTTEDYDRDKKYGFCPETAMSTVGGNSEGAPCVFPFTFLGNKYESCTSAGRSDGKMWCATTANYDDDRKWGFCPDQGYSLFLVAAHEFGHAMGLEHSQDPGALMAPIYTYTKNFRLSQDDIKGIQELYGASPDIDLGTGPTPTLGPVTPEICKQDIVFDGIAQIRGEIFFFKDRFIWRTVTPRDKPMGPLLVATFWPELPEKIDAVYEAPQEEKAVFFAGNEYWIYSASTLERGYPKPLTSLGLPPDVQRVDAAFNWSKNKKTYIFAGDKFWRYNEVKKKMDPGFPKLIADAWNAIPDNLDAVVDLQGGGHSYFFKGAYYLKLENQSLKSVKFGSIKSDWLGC

[3] = recombinant human catalytic domain of MMP-13, read-out: MMP-13 IC50
[4] = MMP-13 IC50, recombinant human catalytic domain of MMP-13

C=Cc1cccc2oc(C(=O)Nc3ccc(-c4ccc(S(=O)(=O)N[C@H](C(=O)O)C(C)C)cc4)cc3)c(C)c12 [Example 96, N-[(4′-{[(3-methyl-4-vinyl-1-benzofuran-2-yl)carbonyl]amino}-1,1′-biphenyl-4-yl)sulfonyl]-L-valine] gave an IC50 [1, 3] of 4.4 nM and an IC50 [2] of 625 nM.
Cc1c(C(=O)Nc2ccc(-c3ccc(S(=O)(=O)N[C@H](C(=O)O)C(C)C)cc3)cc2)oc2cccc(C(O)CO)c12 (stereo partly drawn) [Example 97, N-{[4′-({[4-(1,2-dihydroxyethyl)-3-methyl-1-benzofuran-2-yl]carbonyl}amino)-1,1′-biphenyl-4-yl]sulfonyl}-L-valine] was tested, and the IC50 [1, 3] was 14 nM and the IC50 [2] was 2860 nM.
With C=Cc1cccc2oc(C(=O)Nc3ccc(-c4ccc(S(=O)(=O)N(C)[C@H](C(=O)O)C(C)C)cc4)cc3)c(C)c12 [Example 98, N-methyl-N-[(4′-{[(3-methyl-4-vinyl-1-benzofuran-2-yl)carbonyl]amino}-1,1′-biphenyl-4-yl)sulfonyl]-L-valine] the IC50 [1, 3] was 84.1 nM and the IC50 [2] was 890 nM.
Cc1c(C(=O)Nc2ccc(-c3ccc(S(=O)(=O)N(C)[C@H](C(=O)O)C(C)C)cc3)cc2)oc2cccc(C(O)CO)c12 (stereo partly drawn) [Example 99, N-{[4′-({[4-(1,2-dihydroxyethyl)-3-methyl-1-benzofuran-2-yl]carbonyl}amino)-1,1′-biphenyl-4-yl]sulfonyl}-N-methyl-L-valine] showed an IC50 [1, 3] of 70 nM and an IC50 [2] of 13200 nM.
Compound COCc1cccc2oc(C(=O)Nc3ccc(-c4ccc(S(=O)(=O)N[C@H](C(=O)O)C(C)C)cc4)cc3)c(C)c12 [Example 100, N-{[4′-({[4-(methoxymethyl)-3-methyl-1-benzofuran-2-yl]carbonyl}amino)-1,1′-biphenyl-4-yl]sulfonyl}-L-valine] has an IC50 [1, 3] of 2.6 nM and an IC50 [2] of 2400 nM.
Compound COC(C)c1cccc2oc(C(=O)Nc3ccc(-c4ccc(S(=O)(=O)N[C@H](C(=O)O)C(C)C)cc4)cc3)c(C)c12 (stereo partly drawn) [Example 101, N-{[4′-({[4-(1-methoxyethyl)-3-methyl-1-benzofuran-2-yl]carbonyl}amino)-1,1′-biphenyl-4-yl]sulfonyl}-L-valine] has an IC50 [1, 3] of 5.8 nM and an IC50 [2] of 2000 nM.
With COCCc1cccc2oc(C(=O)Nc3ccc(-c4ccc(S(=O)(=O)N[C@H](C(=O)O)C(C)C)cc4)cc3)c(C)c12 [Example 102, N-{[4′-({[4-(2-methoxyethyl)-3-methyl-1-benzofuran-2-yl]carbonyl}amino)-1,1′-biphenyl-4-yl]sulfonyl}-L-valinate] the IC50 [1, 3] was 5.7 nM and the IC50 [2] was 1520 nM.
Work on CC(C)Oc1cccc2oc(C(=O)Nc3ccc(-c4ccc(S(=O)(=O)N[C@H](C(=O)O)C(C)C)cc4)cc3)cc12 [Example 103, N-[(4′-{[(4-Isopropoxy-1-benzofuran-2-yl)carbonyl]amino}-1,1′-biphenyl-4-yl)sulfonyl]-L-valine] yielded an IC50 [1, 3] of 3.9 nM and an IC50 [2] of 78.4 nM.
With COc1ccc2oc(C(=O)Nc3ccc(-c4ccc(S(=O)(=O)N[C@H](C(=O)O)C(C)C)cc4)cc3)cc2c1 [Example 104, N-[(4′-{[(5-methoxy-1-benzofuran-2-yl)carbonyl]amino}-1,1′-biphenyl-4-yl)sulfonyl]-L-valine] the IC50 [1, 3] was 0.7 nM and the IC50 [2] was 1.5 nM.
CCCOc1cccc2oc(C(=O)Nc3ccc(-c4ccc(S(=O)(=O)N[C@H](C(=O)O)C(C)C)cc4)cc3)c(C)c12 [Example 107, (S)-3-Methyl-2-{4′-[(3-methyl-4-propoxy-benzofuran-2-carbonyl)-amino]-biphenyl-4-sulfonylamino}-butyric acid] gave an IC50 [1, 3] of 11 nM and an IC50 [2] of 4220 nM.
Compound Cc1c(C(=O)Nc2ccc(-c3ccc(S(=O)(=O)N[C@H](C(=O)O)C(C)C)cc3)cc2)oc2cccc(OC(C)C)c12 [Example 108, (S)-2-{4′-[(4-Isopropoxy-3-methyl-benzofuran-2-carbonyl)-amino]-biphenyl-4-sulfonylamino}-3-methyl-butyric acid] has an IC50 [1, 3] of 13 nM and an IC50 [2] of 4290 nM.
Cc1c(C(=O)Nc2ccc(-c3ccc(S(=O)(=O)N[C@H](C(=O)O)C(C)C)cc3)cc2)oc2cccc(-c3ccncc3)c12 [Example 112, (S)-3-Methyl-2-{4′-[(3-methyl-4-pyridin-4-yl-benzofuran-2-carbonyl)-amino]-biphenyl-4-sulfonylamino}-butyric acid] showed an IC50 [1, 3] of 8.5 nM and an IC50 [2] of 2670 nM.
Cc1c(C(=O)Nc2ccc(-c3ccc(S(=O)(=O)N[C@H](C(=O)O)C(C)C)cc3)cc2)oc2cccc(-c3ccoc3)c12 [Example 113, (S)-2-{4′-[(4-Furan-3-yl-3-methyl-benzofuran-2-carbonyl)-amino]-biphenyl-4-sulfonylamino}-3-methyl-butyric acid] showed an IC50 [1, 4] of 6.4 nM and an IC50 [2] of 2060 nM.
For Cc1c(C(=O)Nc2ccc(-c3ccc(S(=O)(=O)N[C@H](C(=O)O)C(C)C)cc3)cc2)oc2cccc(N3CCOCC3)c12 [Example 114, (S)-3-methyl-2-{4′-[(3-methyl-4-morpholin-4-yl-benzofuran-2-carbonyl)-amino]-biphenyl-4-sulfonylamino}-butyric acid], the IC50 [1, 4] was 32 nM and the IC50 [2] was 1630 nM.
With Cc1c(C(=O)Nc2ccc(-c3ccc(S(=O)(=O)N[C@H](C(=O)O)C(C)C)cc3)cc2)oc2ccc(Cl)c(OC(C)C)c12 [Example 115, (S)-2-{4′-[(5-Chloro-4-isopropoxy-3-methyl-benzofuran-2-carbonyl)-amino]-biphenyl-4-sulfonylamino}-3-methyl-butyric acid] the IC50 [1, 3] was 11 nM and the IC50 [2] was 3010 nM.
Work on COc1c(Cl)cc(Cl)c2oc(C(=O)Nc3ccc(-c4ccc(S(=O)(=O)N[C@H](C(=O)O)C(C)C)cc4)cc3)c(C)c12 [Example 117, (S)-2-{4′-[(5,7-Dichloro-4-methoxy-3-methyl-benzofuran-2-carbonyl)-amino]-biphenyl-4-sulfonylamino}-3-methyl-butyric acid] yielded an IC50 [1, 3] of 199 nM and an IC50 [2] of 20000 nM.
COc1c(I)ccc2oc(C(=O)Nc3ccc(-c4ccc(S(=O)(=O)N[C@H](C(=O)O)C(C)C)cc4)cc3)c(C)c12 [Example 120, (S)-2-{4′-[(5-Iodo-4-methoxy-3-methyl-benzofuran-2-carbonyl)-amino]-biphenyl-4-sulfonylamino}-3-methyl-butyric acid] showed an IC50 [1, 3] of 2.1 nM and an IC50 [2] of 1370 nM.
In the case of CC(=O)c1ccc2oc(C(=O)Nc3ccc(-c4ccc(S(=O)(=O)N[C@H](C(=O)O)C(C)C)cc4)cc3)c(C)c2c1O [Example 123, (S)-2-{4′-[(5-Acetyl-4-hydroxy-3-methyl-benzofuran-2-carbonyl)-amino]-biphenyl-4-sulfonylamino}-3-methyl-butyric acid], the IC50 [1, 3] is reported as 3.2 nM and the IC50 [2] is reported as 63 nM.
In the case of COc1c(C#N)ccc2oc(C(=O)Nc3ccc(-c4ccc(S(=O)(=O)N[C@H](C(=O)O)C(C)C)cc4)cc3)c(C)c12 [Example 124, (S)-2-{4′-[(5-Cyano-4-methoxy-3-methyl-benzofuran-2-carbonyl)-amino]-biphenyl-4-sulfonylamino}-3-methyl-butyric acid], the IC50 [1, 3] is reported as 3 nM and the IC50 [2] is reported as 522 nM.
In the case of COc1c(C)ccc2oc(C(=O)Nc3ccc(-c4ccc(S(=O)(=O)N[C@H](C(=O)O)C(C)C)cc4)cc3)c(C)c12 [Example 125, (S)-2-{4′-[(5-Methyl-4-methoxy-3-methyl-benzofuran-2-carbonyl)-amino]-biphenyl-4-sulfonylamino}-3-methyl-butyric acid], the IC50 [1, 3] is reported as 4.9 nM and the IC50 [2] is reported as 1610 nM.
